Test results reported in article PMC10937419, “Exploring pyrrolidinyl-spirooxindole natural products as promising platforms for the synthesis of novel spirooxindoles as EGFR/CDK2 inhibitors for halting breast cancer cells” (Frontiers in Chemistry, 2024).
Like-named read-outs stand apart in the source and are kept apart here.

Assays:
MCF-7 cells = experiment: MTT cytotoxicity assay, MCF-7 breast cancer cells; type: cell-based; conditions: Homo sapiens
Method: (§1) All cells were incubated at 37 °C in 5% carbon dioxide atmosphere (NuAire). Cells were plated at a density of 5x10^4 cells in triplicates in a plate of 96 wells. On the second day, cells were treated with the compounds with concentrations of (0.01, 0.1, 1, 10, and 100 µM). Cell viability was assessed using the MTT assay [6].

MDA-MB-231 cells = experiment: MTT cytotoxicity assay, MDA-MB-231 breast cancer cells; type: cell-based
Method: as §1

EGFR kinase = molecular target: T1, EGFR kinase (Homo sapiens, UniProt P00533); experiment: EGFR kinase inhibition assay; type: biochemical; conditions: for % remaining EGFR kinase activity (relative to control): signal relative to control
T1 construct: purchased BPS Bioscience Corporation 40321
T1 sequence (P00533 25-1210): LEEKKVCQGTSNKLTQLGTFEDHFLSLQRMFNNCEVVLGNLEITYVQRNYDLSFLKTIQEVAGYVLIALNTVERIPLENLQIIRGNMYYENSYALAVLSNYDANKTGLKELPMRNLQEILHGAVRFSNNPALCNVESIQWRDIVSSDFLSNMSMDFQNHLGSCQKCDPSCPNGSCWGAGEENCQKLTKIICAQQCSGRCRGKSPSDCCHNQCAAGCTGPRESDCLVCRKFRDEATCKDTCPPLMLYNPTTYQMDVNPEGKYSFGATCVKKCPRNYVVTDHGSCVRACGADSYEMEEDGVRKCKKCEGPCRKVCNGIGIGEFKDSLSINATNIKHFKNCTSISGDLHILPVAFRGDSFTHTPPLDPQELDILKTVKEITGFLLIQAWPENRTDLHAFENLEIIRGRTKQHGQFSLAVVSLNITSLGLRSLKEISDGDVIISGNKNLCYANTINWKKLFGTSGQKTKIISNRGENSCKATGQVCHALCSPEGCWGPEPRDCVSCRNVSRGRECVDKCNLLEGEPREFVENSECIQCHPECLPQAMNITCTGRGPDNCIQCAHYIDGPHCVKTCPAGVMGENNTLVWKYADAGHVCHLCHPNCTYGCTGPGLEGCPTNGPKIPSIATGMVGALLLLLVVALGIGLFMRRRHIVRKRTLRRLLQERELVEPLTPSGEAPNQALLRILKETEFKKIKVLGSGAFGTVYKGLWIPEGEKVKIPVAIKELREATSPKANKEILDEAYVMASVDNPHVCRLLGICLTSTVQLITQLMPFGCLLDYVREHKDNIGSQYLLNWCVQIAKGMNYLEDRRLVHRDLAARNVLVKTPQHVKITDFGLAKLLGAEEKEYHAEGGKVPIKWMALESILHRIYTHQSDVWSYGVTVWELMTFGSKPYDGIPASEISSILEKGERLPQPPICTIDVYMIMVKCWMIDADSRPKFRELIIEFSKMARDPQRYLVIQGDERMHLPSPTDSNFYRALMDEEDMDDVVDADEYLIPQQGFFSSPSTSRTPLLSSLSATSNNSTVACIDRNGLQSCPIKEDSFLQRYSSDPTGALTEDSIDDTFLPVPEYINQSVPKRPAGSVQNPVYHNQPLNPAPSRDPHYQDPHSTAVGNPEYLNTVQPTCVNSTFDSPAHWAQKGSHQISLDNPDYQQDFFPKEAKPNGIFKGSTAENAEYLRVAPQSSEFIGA
Method: (§2) Inhibitory activities of 5g, 5l, and 5n were tested against EGFR and CDK-2.
(§3) Plus, Promega, USA) inhibition assay.

CDK-2 kinase = molecular target: T2, CDK-2 kinase (Homo sapiens, UniProt P24941); experiment: CDK-2 kinase inhibition assay (Kinase-Glo Plus); type: biochemical; conditions: for CDK-2 kinase activity remaining (% of control): signal relative to control
T2 construct: purchased not clearly printed (Promega, USA is printed after 'Kinase-Glo Plus'; #79599 is a BPS Bioscience number to my knowledge) 79599
Method: as §2, §3

WISH cells = experiment: MTT cytotoxicity (safety) assay, normal WISH cells; type: cell-based; conditions: mean ± SD of three independent trials
Method: The cytotoxicity of the synthesized compounds was tested using the MTT assay on breast cancer cells (MCF-7 and MDA-MB-231).
The methods for the Cytotoxic activity ([Mosmann, 1983]; [Nafie et al., 2020a]); EGFR/CDK-2 enzyme inhibition ([Nafie et al., 2022a]); Flow cytometry using Annexin V/PI staining; Gene expression analysis using RT-PCR ([Nafie et al., 2022b]); are amended in the Supplementary Material S1.
as §1, with “Both breast cancer; MCF-7 and MDA-MB-231 and normal (WISH) cells were purchased from the National Research Institute, Egypt, and maintained in RPMI-1640 medium L-Glutamine (Lonza Verviers SPRL, Belgium, cat#12-604F). All” for “All”

[1] = MCF7, MTT assay, mean ± SD of three independent trials, read-out: IC50 ± SD, MCF-7
[2] = Homo sapiens, MDA-MB-231, MTT assay, mean ± SD of three independent trials, read-out: IC50 ± SD, MDA-MB-231
[3] = average of three independent replicates

## COC(=O)CNC(=O)CN1C(=O)S[C@@]2(C1=O)[C@@H](c1ccc(Cl)cc1)[C@H]1CSCN1[C@@]21C(=O)Nc2ccc(Cl)cc21 [Compound 5a, Methyl (2-((3S,6′S,7′S,7a′S)-5-chloro-7'-(4-chlorophenyl)-2,2″,4″-trioxo-7′,7a′-dihydro-1′H,3′H-dispiro [indoline-3,5′-pyrrolo [1,2-c]thiazole-6′,5″-thiazolidin]-3″-yl)acetyl)glycinate]
MCF-7 cells; [1]
  IC50: 5.87 ± 0.5 µM
MDA-MB-231 cells; [2]
  IC50: 29.5 ± 1.3 µM

## COC(=O)[C@@H](NC(=O)CN1C(=O)S[C@@]2(C1=O)[C@@H](c1ccc(Br)cc1)[C@H]1CSCN1[C@@]21C(=O)Nc2cc(Cl)ccc21)C(C)C [Compound 5l, Methyl (2-((3S,6′S,7′S,7a′S)-7'-(4-bromophenyl)-6-chloro-2,2″,4″-trioxo-7′,7a′-dihydro-1′H,3′H-dispiro [indoline-3,5′-pyrrolo [1,2-c]thiazole-6′,5″-thiazolidin]-3″-yl)acetyl)valinate]
EGFR kinase; 0.01 µM, ΔT=30 min
  % remaining EGFR kinase activity (relative to control): 69.72%
  inhibition at 0.01 µM: 30.3%
EGFR kinase; 0.1 µM, ΔT=30 min
  % remaining EGFR kinase activity (relative to control): 60.14%
  inhibition at 0.1 µM: 39.9%
EGFR kinase; 1 µM, ΔT=30 min
  % remaining EGFR kinase activity (relative to control): 48.86%
  inhibition at 1 µM: 51.1%
EGFR kinase; 2.5 µM, ΔT=30 min
  % remaining EGFR kinase activity (relative to control): 41.25%
  inhibition at 2.5 µM: 58.7%
EGFR kinase; 5 µM, ΔT=30 min
  % remaining EGFR kinase activity (relative to control): 19.88%
  inhibition at 5 µM: 80.1%
EGFR kinase; 10 µM, ΔT=30 min
  % remaining EGFR kinase activity (relative to control): 11.75%
  inhibition at 10 µM: 89.9%
EGFR kinase; [3]
  IC50: 0.067 ± 0.001 µM
EGFR kinase; concentration not given in Table 2, matches 10 µM in the 4th table
  % Of EGFR inhibition: 89.8 ± 2.8%
MCF-7 cells; [1]
  IC50: 3.4 ± 0.5 µM
MDA-MB-231 cells; [2]
  IC50: 8.45 µM
MDA-MB-231 cells; MTT assay, mean ± SD of three independent trials, listed as C00012, read-out: IC50 ± SD, MDA-MB-231
  IC50: 8.43 ± 0.6 µM
CDK-2 kinase; 0.01 µM, ΔT=30 min
  CDK-2 kinase activity remaining (% of control): 90.99%
CDK-2 kinase; 0.01 µM, ΔT=30 min, read-out: % of inhibition, CDK2
  inhibition at 0.01 µM: 9.01%
CDK-2 kinase; 0.1 µM, ΔT=30 min
  CDK-2 kinase activity remaining (% of control): 76%
CDK-2 kinase; 0.1 µM, ΔT=30 min, read-out: % of inhibition, CDK2
  inhibition at 0.1 µM: 24%
CDK-2 kinase; 1 µM, ΔT=30 min
  CDK-2 kinase activity remaining (% of control): 60.44%
CDK-2 kinase; 1 µM, ΔT=30 min, read-out: % of inhibition, CDK2
  inhibition at 1 µM: 39.6%
CDK-2 kinase; 2.5 µM, ΔT=30 min
  CDK-2 kinase activity remaining (% of control): 56.06%
CDK-2 kinase; 2.5 µM, ΔT=30 min, read-out: % of inhibition, CDK2
  inhibition at 2.5 µM: 43.9%
CDK-2 kinase; 5 µM, ΔT=30 min
  CDK-2 kinase activity remaining (% of control): 36.07%
CDK-2 kinase; 5 µM, ΔT=30 min, read-out: % of inhibition, CDK2
  inhibition at 5 µM: 63.9%
CDK-2 kinase; 10 µM, ΔT=30 min
  CDK-2 kinase activity remaining (% of control): 29.31%
CDK-2 kinase; 10 µM, ΔT=30 min, read-out: % of inhibition, CDK2
  inhibition at 10 µM: 89.4%
CDK-2 kinase; [3]
  IC50: 0.345 µM
WISH cells
  IC50: 43.5 ± 2 µM

## O=C(CN1C(=O)S[C@@]2(C1=O)[C@@H](c1ccc(Cl)cc1)[C@H]1CSCN1[C@@]21C(=O)Nc2ccc(Cl)cc21)NCCN1CCOCC1 [Compound 5k]
MCF-7 cells; [1]
  IC50: 21.4 ± 0.9 µM
MDA-MB-231 cells; [2]
  IC50: 19.5 ± 0.7 µM

## O=C(O)CN1C(=O)S[C@@]2(C1=O)[C@@H](c1ccc(Cl)cc1)[C@H]1CSCN1[C@@]21C(=O)Nc2ccc([N+](=O)[O-])cc21 [Compound 5f, 2-((3S,6′S,7′S,7a′S)-7'-(4-Chlorophenyl)-5-nitro-2,2″,4″-trioxo-7′,7a′-dihydro-1′H,3′H-dispiro [indoline-3,5′-pyrrolo [1,2-c]thiazole-6′,5″-thiazolidin]-3″-yl)acetic acid]
MCF-7 cells; [1]
  IC50: 18.5 ± 0.6 µM
MDA-MB-231 cells; [2]
  IC50: 35.5 ± 1.1 µM

## C#Cc1cccc(Nc2ncnc3cc(OCCOC)c(OCCOC)cc23)c1 [Erlotinib, reference compound]
MCF-7 cells; MCF7, read-out: IC50 ± SD, MCF-7
  IC50: 2.14 ± 0.3 µM
MDA-MB-231 cells; Homo sapiens, MDA-MB-231, read-out: IC50 ± SD, MDA-MB-231
  IC50: 3.25 ± 0.5 µM

## Cc1ccc2c(c1)[C@@]1(C(=O)N2)N2CSC[C@@H]2[C@H](c2ccc(Cl)cc2)[C@]12SC(=O)N(CC(=O)O)C2=O [Compound 5e, 2-((3S,6′S,7′S,7a′S)-7'-(4-Chlorophenyl)-5-methyl-2,2″,4″-trioxo-7′,7a′-dihydro-1′H,3′H-dispiro [indoline-3,5′-pyrrolo [1,2-c]thiazole-6′,5″-thiazolidin]-3″-yl)acetic acid]
MCF-7 cells; [1]
  IC50: 9.8 ± 0.7 µM
MDA-MB-231 cells; [2]
  IC50: 5.4 ± 0.6 µM

## COC(=O)CNC(=O)CN1C(=O)S[C@@]2(C1=O)[C@@H](c1ccc(Cl)cc1)[C@H]1CSCN1[C@@]21C(=O)Nc2cc(Cl)ccc21 [Compound 5b, Methyl (2-((3S,6′S,7′S,7a′S)-6-chloro-7'-(4-chlorophenyl)-2,2″,4″-trioxo-7′,7a′-dihydro-1′H,3′H-dispiro [indoline-3,5′-pyrrolo [1,2-c]thiazole-6′,5″-thiazolidin]-3″-yl)acetyl)glycinate]
MCF-7 cells; [1]
  IC50: 7.8 ± 0.32 µM
MDA-MB-231 cells; [2]
  IC50: 32.5 ± 0.42 µM

## O=C(O)CN1C(=O)S[C@@]2(C1=O)[C@@H](c1ccc(Cl)cc1)[C@H]1CSCN1[C@@]21C(=O)Nc2ccc(F)cc21 [Compound 5d, 2-((3S,6′S,7′S,7a′S)-7'-(4-Chlorophenyl)-5-fluoro-2,2″,4″-trioxo-7′,7a′-dihydro-1′H,3′H-dispiro [indoline-3,5′-pyrrolo [1,2-c]thiazole-6′,5″-thiazolidin]-3″-yl)acetic acid]
MCF-7 cells; [1]
  IC50: 19.4 ± 0.4 µM
MDA-MB-231 cells; [2]
  IC50: 9.8 ± 0.35 µM

## COC(=O)CCCNC(=O)CN1C(=O)S[C@@]2(C1=O)[C@@H](c1ccc(Br)cc1)[C@H]1CSCN1[C@@]21C(=O)Nc2cc(Cl)ccc21 [Compound 5o, Methyl 4-(2-((3S,6′S,7′S,7a′S)-7'-(4-bromophenyl)-6-chloro-2,2″,4″-trioxo-7′,7a′-dihydro-1′H,3′H-dispiro [indoline-3,5′-pyrrolo [1,2-c]thiazole-6′,5″-thiazolidin]-3″-yl)acetamido)butanoate]
MCF-7 cells; [1]
  IC50: 4.12 ± 0.4 µM
MDA-MB-231 cells; [2]
  IC50: 4.32 ± 0.5 µM

## O=C(O)CN1C(=O)S[C@@]2(C1=O)[C@@H](c1ccc(Cl)cc1)[C@H]1CSCN1[C@@]21C(=O)Nc2cc(Cl)ccc21 [Compound 5c, 2-((3S,6′S,7′S,7a′S)-6-chloro-7'-(4-chlorophenyl)-2,2″,4″-trioxo-7′,7a′-dihydro-1′H,3′H-dispiro [indoline-3,5′-pyrrolo [1,2-c]thiazole-6′,5″-thiazolidin]-3″-yl)acetic acid]
MCF-7 cells; [1]
  IC50: 15.8 ± 0.4 µM
MDA-MB-231 cells; [2]
  IC50: 24.2 ± 1.1 µM

## COC(=O)[C@@H](NC(=O)CN1C(=O)S[C@@]2(C1=O)[C@@H](c1ccc(Br)cc1)[C@H]1CSCN1[C@@]21C(=O)Nc2ccc(F)cc21)C(C)C [Compound 5m, Methyl (2-((3S,6′S,7′S,7a′S)-7'-(4-bromophenyl)-5-fluoro-2,2″,4″-trioxo-7′,7a′-dihydro-1′H,3′H-dispiro [indoline-3,5′-pyrrolo [1,2-c]thiazole-6′,5″-thiazolidin]-3″-yl)acetyl)valinate]
MCF-7 cells; [1]
  IC50: 4.5 ± 0.4 µM
MDA-MB-231 cells; [2]
  IC50: 6.3 ± 0.3 µM

## O=C(CN1C(=O)S[C@@]2(C1=O)[C@@H](c1ccc(Cl)cc1)[C@H]1CSCN1[C@@]21C(=O)Nc2ccc([N+](=O)[O-])cc21)NCCN1CCOCC1 [Compound 5i]
MCF-7 cells; [1]
  IC50: 28.7 ± 0.8 µM
MDA-MB-231 cells; [2]
  IC50: 35.3 ± 1.2 µM

## O=C(CN1C(=O)S[C@@]2(C1=O)[C@@H](c1ccc(Cl)cc1)[C@H]1CSCN1[C@@]21C(=O)Nc2ccc(F)cc21)NCCN1CCOCC1 [Compound 5j]
MCF-7 cells; [1]
  IC50: 23.4 ± 1.2 µM
MDA-MB-231 cells; [2]
  IC50: 21.4 ± 0.8 µM
